system: Saccharomyces cerevisiae ABC16-Green Monster; test: growth inhibition at single dose (up to 150 µM), below the 70% cut-off for dose-response; higher = more potent; settings: 18 h; 30 °C; YPD
Method in brief: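 Drug-sensitive S. cerevisiae ABC16-Green Monster cells were grown overnight in YPD at 30 °C and diluted to log phase (OD600 0.1–0.2). Each library compound was added at one dose of 150 µM to 200 µl culture per well in 96-well plates, in biological duplicates, with untreated cultures alongside. OD600 was read at 0 h and after 18 h at 30 °C. The value is percent growth inhibition; compounds below 70% in both replicates were not taken to dose-response.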

Row | Structure (SMILES) | growth inhibition at single dose
1 | O/N=C1/c2ccccc2-c2nnc(-c3cccc(OC(F)(F)F)c3)cc21 | < 70%
2 | CC(C)(C)OC(=O)N1CCC(Cn2nc(-c3cnc4ccccc4c3)c3c(N)ncnc32)CC1 | < 70%
3 | CC(NCc1ccccc1)c1cc(Cl)ccc1O (configuration not stated) | < 70%
4 | Cn1/c(=N/C(=O)c2ccc(=O)[nH]c2)sc2ccccc21 | < 70%
5 | c1ccc(NCCNc2nc(-c3ccncc3)nc3ccccc23)nc1 | < 70%
6 | Cc1cc(C)c2nc(N3CCC(C(=O)NCCCN4CCC(N5CCCCC5)CC4)CC3)sc2c1 | < 70%
7 | Cc1cccnc1NC(=O)c1cccc(OCc2c(C)noc2C)c1 | < 70%
8 | CCOC(=O)c1c(C)[nH]c(C(=O)Nc2cccc(C)n2)c1C | < 70%
9 | CCOC(=O)C1=CN(C)C=C(C(=O)OCC)C1c1cc(Br)c(OCC)c(OC)c1 | < 70%
10 | O=C(/C=C/c1ccc([N+](=O)[O-])cc1)NCC(=O)N1CCN(S(=O)(=O)c2ccc(Cl)cc2)CC1 | < 70%
11 | COCc1nn2c3c(nnc2c1-c1ccccc1)C(=O)CC(c1ccccc1)C3 (configuration not stated) | < 70%
12 | Cc1cc(C=C2SC(=Nc3ccccc3)N(C3CCCC3)C2=O)c(C)n1-c1ccc(Cl)cc1 | < 70%
13 | Cc1cc(C)c2c(c1)OCN(Cc1ccccc1Cl)C2 | < 70%
14 | C=C(C)COc1ccc(-c2onc(C)c2-c2ccc(OC)c(OC)c2)c(O)c1 | < 70%
15 | CCCCn1c(N)c(N(C)CC(=O)Nc2scc(-c3ccccc3)c2C(=O)OCC)c(=O)[nH]c1=O | < 70%
16 | Cc1cc(C)nc(SCC(=O)N2CCN(C(=O)c3ccco3)CC2)n1 | < 70%
17 | Cc1cc(OCC(=O)NCc2ccccc2)c2cc(Br)ccc2n1 | < 70%
18 | Oc1ccc(-c2nc(-c3ccc4oc5ccc(-c6[nH]c(-c7ccc(O)cc7)nc6-c6ccccc6)cc5c4c3)c(-c3ccccc3)[nH]2)cc1 | < 70%
19 | O=C1N/C(=N\C2CCCC2)S/C1=C\c1ccc2c(c1)OCCO2 | < 70%
20 | Cc1nc(-c2cccc(NCc3ccccc3)c2)[nH]c1C | < 70%
21 | CCCCCCc1cc2cc(-c3csc(C=Cc4ccccc4)n3)c(=O)oc2cc1O | < 70%
22 | COc1ccc(-c2nc3cc(Cc4ccc5[nH]c(-c6ccc(OC)cc6)nc5c4)ccc3[nH]2)cc1 | < 70%
23 | Cc1nc(Sc2ncnc3sc4c(c23)CCC4)sc1CC(N)=O | < 70%

Row | Structure (SMILES) | growth inhibition at single dose
24 | COc1ccc2nc(C)cc(Nc3ccc(Cl)cc3)c2c1 | < 70%
25 | COc1ccc(-[n+]2c(C)cn3c2CCc2ccccc2-3)cc1 | < 70%
26 | CS(=O)(=O)N1CCC(Cn2nc(Cc3cccc4ccccc34)c3c(N)ncnc32)CC1 | < 70%
27 | Cc1cc(-c2nc(=O)c3ccccc3[nH]2)c(C)n1CC(C)C | < 70%
28 | FC(F)(F)c1nc(NCCNc2ccccn2)c2ccccc2n1 | < 70%
29 | N#Cc1nc(-c2ccccc2)oc1S(=O)(=O)c1ccc(Cl)cc1 | < 70%
30 | O=C(Nc1cccnc1)c1c(O)c2cccc3c2n(c1=O)CC3 | < 70%
31 | COc1ccc2c(=O)c(C(=O)N(C)Cc3ccc(F)c(F)c3)c[nH]c2c1 | < 70%
32 | OCC1CCCN(c2nn3cc(-c4ccccc4)nc3s2)C1 (configuration not stated) | < 70%
33 | Cc1ccc(Nc2nc(NCCO)c3ccccc3n2)cc1C | < 70%
34 | O=C(Nc1cccc(Cl)c1)c1cnc(N2CCN(c3ccncc3)CC2)c(Cl)c1 | < 70%
35 | Cc1cc(C)c2cc(C(=O)NC3CCCCCCC3)[nH]c2c1 | < 70%
36 | CC1(COc2ccc(N3CCC(Oc4ccc(OC(F)(F)F)cc4)CC3)cc2)Cn2cc([N+](=O)[O-])nc2O1 (configuration not stated) | < 70%
37 | CC(=O)Nc1ccc(-c2noc(CC3CCCN(Cc4cccc(F)c4C)C3)n2)cc1 (configuration not stated) | < 70%
38 | CCCn1nc(C(=O)Nc2ccccc2N2CCc3ccccc3C2)ccc1=O | < 70%
39 | O=C(Nc1nc(CN2CCOCC2)cs1)c1ccc(-c2ccc(Cl)cc2)s1 | < 70%
40 | CCN(CC)CCn1c(NC(=O)c2cnc3c(cnn3C(C)C)c2)nc2ccccc21 | < 70%
41 | COc1ccc(C(=O)C(CCC(CNC(C)(C)C)C(=O)c2ccc(OC)cc2)CNC(C)(C)C)cc1 (configuration not stated) | < 70%
42 | N=C1NC(=O)C(Cc2ccc(OC(F)(F)F)cc2)S1 (configuration not stated) | < 70%
43 | CN1c2ccccc2N(C)C1c1ccc2c(c1)OCO2 | < 70%
44 | CCOC(=O)c1ccc(Oc2nc3ccccc3nc2C(C#N)C(=O)OC)cc1 (configuration not stated) | < 70%
45 | Cc1ccc(OCCNC(=O)c2[nH]c3c(c2C)C(=O)CCC3)c(C)c1 | < 70%
46 | Cc1sc(NC(=O)c2ccco2)c(C(c2cccnc2)N2CCC(Cc3ccccc3)CC2)c1C (configuration not stated) | < 70%

Row | Structure (SMILES) | growth inhibition at single dose
47 | Cc1[nH]c2cc(F)cc(F)c2c(=O)c1-c1ccc(Oc2ccc(OC(F)(F)F)cc2)cc1 | < 70%
48 | CCN1CCN(c2c(C(=O)c3ccccc3)cnc3cc(OC)c(OC)cc23)CC1 | < 70%
49 | CN(C)CC(C)(C)CNc1nn2cc(-c3ccccc3)nc2s1 | < 70%
50 | COc1cccc(NC(=O)c2c(NC(=O)c3cccnc3)sc3c2CCC3)c1 | < 70%
51 | CCCn1c(=N)c(C(=O)NC2CCCCC2)cc2c(=O)n3cccc(C)c3nc21 | < 70%
52 | Cc1cc(C(=O)COC(=O)c2ccccc2C(F)(F)F)c(C)n1Cc1ccccc1Cl | < 70%
53 | Cc1nn2c(O)c3c(nc2c1-c1ccc(F)cc1)CCCC3 | < 70%
54 | CCOc1ccc2nc(C)cc(Nc3ccc(N(C)C)cc3)c2c1 | < 70%
55 | CCN(CC)S(=O)(=O)c1ccc(C(C)NC(=O)c2nn(CC)c(=O)c3ccccc23)cc1 (configuration not stated) | < 70%
56 | Cc1nc(C(=O)N2CCc3c(c(C(=O)NCc4ccccn4)nn3CCc3ccccc3)C2)cs1 | < 70%
57 | FC(F)(F)c1nnc2ccc(Cl)nn12 | < 70%
58 | CCOc1ccc(OCC(=O)Nc2cc(C)cc(C)c2)cc1 | < 70%
59 | CC/N=c1\scc(-c2ccc(Cl)cc2)n1/N=C/c1ccc[nH]1 | < 70%
60 | Cc1ccccc1CN1CCC(O)(c2ccc(Cl)c(C(F)(F)F)c2)CC1 | < 70%
61 | O=C(Nc1ccc(Br)cc1)Nc1cccc(Cl)c1 | < 70%
62 | Cc1cc(-c2cc(C(=O)N3CCCN(C)c4nc5ccccc5nc43)c3c(C)noc3n2)c(C)s1 | < 70%
63 | Cn1c(N)c(C(=O)COC(=O)C2(c3ccc(Cl)cc3)CCCC2)c(=O)n(C)c1=O | < 70%
64 | CC(C)(C)c1ccc(Oc2ccc(N)cc2)cc1 | < 70%
65 | CCN(CC)S(=O)(=O)c1ccc(Cl)c(C(=O)Nc2ccc3nc(C)sc3c2)c1 | < 70%
66 | CCCCS(=O)(=O)Nc1ccc2cnn(C)c2c1 | < 70%
67 | Cc1cc(C(=O)COc2ccc(C(N)=O)cc2)c(C)n1-c1ccc2c(c1)OCO2 | < 70%
68 | Cc1ccc2[nH]c(C3CCCNC3)c(-c3ccncc3)c2c1 (configuration not stated) | < 70%
69 | NCC(c1cccs1)S(=O)(=O)c1ccccc1 (configuration not stated) | < 70%

Row | Structure (SMILES) | growth inhibition at single dose
70 | CCc1ccc([C@@H]2C[C@H](C(F)(F)F)n3ncc(C(=O)NCc4ccc(OC)cc4)c3N2)cc1 | < 70%
71 | Cc1ccc2c(C)nc(Nc3nc(C)cc(-c4ccccc4)n3)nc2c1 | < 70%
72 | NC(=O)c1cc(-c2ccsc2)ccc1OCCOc1ccccc1 | < 70%
73 | COc1ccc(-n2ccnc2SCC(=O)Nc2cc(C)ccc2C)c(OC)c1 | < 70%
74 | Cc1cc(C(=O)COC(=O)c2ccccc2O)c(C)n1CC1CCCO1 (configuration not stated) | < 70%
75 | O=[N+]([O-])c1ccc(C=NNc2nc3ccccc3[nH]2)cc1 | < 70%
76 | CC1Cc2cc(C(=O)CSc3nnc(Cc4cccs4)n3C)ccc2N1S(C)(=O)=O (configuration not stated) | < 70%
77 | Fc1ccc2[nH]c3c(NCCCN4CCOCC4)ncnc3c2c1 | < 70%
78 | CN(C)c1cc(CNC(=O)c2cc3c(F)cccc3s2)ccn1 | < 70%
79 | CCc1c(C)nc(-n2nc(C)cc2NC(=O)c2ccccc2SC)[nH]c1=O | < 70%
80 | Oc1ccccc1CN1CCC2(CCCN(Cc3ccccc3F)C2)C1 (configuration not stated) | < 70%
81 | O=C(Nc1ccc(N2CCOCC2)cn1)c1ccccc1 | < 70%
82 | COc1cc(C(=O)Nc2ccc(-c3nc4ccccc4[nH]3)cc2)cc(OC)c1OC | < 70%
83 | O=C(NC1CCN(Cc2ccccc2)CC1)c1cc(-c2cccnc2)nc2ccc(Cl)cc12 | < 70%
84 | Cc1ccc(OCCCCCCNCCO)c(C)c1 | < 70%
85 | Cc1nccnc1-c1ccnn1C(=O)Nc1cc(Cl)cc(Cl)c1 | < 70%
86 | Cc1cccc(-c2nc(Nc3ccncn3)c3sccc3n2)n1 | < 70%
87 | CCN(CC(=O)Nc1ccccc1-c1ccccc1)Cc1nc(=O)c2ccccc2[nH]1 | < 70%
88 | N#Cc1ccc(-c2ccc(OCC(N)=O)cc2)cc1 | < 70%
89 | CN(Cc1ccccc1)S(=O)(=O)c1ccc(Cl)c(C(=O)Nc2nnc(C(F)(F)F)[nH]2)c1 | < 70%
90 | O=C(Nc1cnc2ccccc2c1)c1cccc(-n2cnnn2)c1 | < 70%
91 | C[C@]1(O)C[C@@H](c2nc(-c3ccc4ccc(-c5ccccc5)nc4c3)c3c(N)nccn32)C1 | < 70%
92 | Cc1cc(C)c2cc(C(=O)Nc3ccc(N4CCN(C)CC4)nc3)[nH]c2c1 | < 70%
